In US20050080024A1, “Nitric oxide donating derivatives for the treatment of cardiovascular disorders” (priority 2002, published 2005):
Like-named read-outs stand apart in the source and are kept apart here.

Columns and labels:
ApoA-1 gene = settings: putatively mediated through Site S (PCT/CA03/01220); cited from earlier work
[1] = human study; cited from earlier work
[2] = rabbits; cited from earlier work
C. albicans = experiment: Murine model for systemic candidiasis; assay type: in vivo; settings: treated mice; fluconazole orally
Method: In addition, fungicidal compounds of the invention are efficacious in a murine model for systemic candidiasis. Fungicidal compounds of the invention prolong mean and median survival times of treated mice. The compounds are administered IP producing a similar survival pattern as that produced by the positive control compound fluconazole administered orally. […] Fungicidal compounds of the invention are also efficacious when administered orally to mice with an established systemic Candida infection. The compound given orally is similar in efficacy to fluconazole as measured by survival time, percent cures and kidney burden. Fungicidal compounds of the invention are also effective against systemic candidiasis caused by a strain of C. albicans resistant to fluconazole.

For `Oc1ccc(/C=C/c2cc(O)cc(O)c2)cc1` [resveratrol, 5-[(E)-2-(4-hydroxy-phenyl)-vinyl]-benzene-1,3-diol], the “transcription of apolipoprotein Al” value (ApoA-1 gene) is given as “increase the transcription of apolipoprotein Al”.
In the case of `O=C1CC(c2ccc(O)cc2)Oc2cc(O)cc(O)c21` (stereo not shown) [naringenin, 5,7-dihydroxy-2-(4-hydroxy-phenyl)-chroman-4-one], the HDL [1] is given as “increase HDL”, the LDL [1] is given as “no effect” and the triglycerides [1] is given as “no effect”. The HDL [2] was “no effect upon HDL” and the LDL [2] was “decrease LDL”.
In the case of `OC(Cn1cncn1)(Cn1cncn1)c1ccc(F)cc1F` [fluconazole], the “recoverable colonies from the kidneys” value (C. albicans) is reported as “reduce recoverable colonies from the kidneys”.
